Assay results reported in patent US10653146B2, “Microbiocidal oxadiazole derivatives” (SYNGENTA PARTICIPATIONS AG, priority 2016, dated 2020).

How the values were obtained:
[1] = tested on: Glomerella lagenarium (Colletotrichum lagenarium); test: Fungicidal activity against Glomerella lagenarium (Colletotrichum lagenarium) liquid culture / cucumber / preventative (anthracnose); assay type: cell-based; conditions: Colletotrichum orbiculare; 20 ppm in the applied formulation; liquid culture in PDB, 24° C.; 3 to 4 days after application; read-out: disease control compared to untreated control (inhibition of growth measured photometrically)
Experimental: Mycelia fragments or conidia suspensions of a fungus prepared either freshly from liquid cultures of the fungus or from cryogenic storage, are directly mixed into nutrient broth. DMSO solutions of the test compound (max. 10 mg/ml) are diluted with 0.025% Tween20 by a factor of 50 and 10 μl of this solution is pipetted into a microtiter plate (96-well format). The nutrient broth containing the fungal spores/mycelia fragments is then added to give an end concentration of the tested compound. The test plates are incubated in the dark at 24° C. and 96% relative humidity. The inhibition of fungal growth is determined photometrically after 2 to 7 days, depending on the pathosystem, and percent antifungal activity relative to the untreated check is calculated.
Conidia of the fungus from cryogenic storage are directly mixed into nutrient broth (PDB—potato dextrose broth). After placing a (DMSO) solution of test compound into a microtiter plate (96-well format), the nutrient broth containing the fungal spores is added. The test plates are incubated at 24° C. and the inhibition of growth is measured photometrically 3 to 4 days after application.
The following compounds at 20 ppm in the applied formulation give at least 80% disease control in this test when compared to untreated control under the same conditions, which show extensive disease development.

[2] = tested on: Puccinia recondita f. Sp. Tritici; test: Fungicidal activity against Puccinia recondita f. sp. tritici / wheat / leaf disc preventative (brown rust); assay type: in vivo; conditions: foliar, 200 ppm in the applied formulation, wheat leaf segments cv. Kanzler, inoculated 1 day after application, assessed 7 to 9 days after application, read-out: disease control compared to untreated control leaf disks
Experimental: Leaf disks or leaf segments of various plant species are cut from plants grown in a greenhouse. The cut leaf disks or segments are placed in multiwell plates (24-well format) onto water agar. The leaf disks are sprayed with a test solution before (preventative) or after (curative) inoculation. Compounds to be tested are prepared as DMSO solutions (max. 10 mg/ml) which are diluted to the appropriate concentration with 0.025% Tween20 just before spraying. The inoculated leaf disks or segments are incubated under defined conditions (temperature, relative humidity, light, etc.) according to the respective test system. A single evaluation of disease level is carried out 3 to 14 days after inoculation, depending on the pathosystem. Percent disease control relative to the untreated check leaf disks or segments is then calculated. Wheat leaf segments cv. Kanzler were placed on agar in multiwell plates (24-well format) and sprayed with the formulated test compound diluted in water. The leaf disks were inoculated with a spore suspension of the fungus 1 day after application. The inoculated leaf segments were incubated at 19° C. and 75% relative humidity (rh) under a light regime of 12 hours light/12 hours darkness in a climate cabinet and the activity of a compound was assessed as percent disease control compared to untreated when an appropriate level of disease damage appears in untreated check leaf segments (7 to 9 days after application). The following compounds at 200 ppm in the applied formulation give at least 80% disease control in this test when compared to untreated control leaf disks under the same conditions, which show extensive disease development.

[3] = tested on: Puccinia recondite f. Sp. Tritici; test: Fungicidal activity against Puccinia recondite f. sp. tritici / wheat / leaf disc curative (brown rust); assay type: in vivo; conditions: foliar, 200 ppm in the applied formulation, wheat leaf segments cv. Kanzler, applied 1 day after inoculation, assessed 6 to 8 days after application, read-out: disease control compared to untreated control leaf disks
Experimental: Leaf disks or leaf segments of various plant species are cut from plants grown in a greenhouse. The cut leaf disks or segments are placed in multiwell plates (24-well format) onto water agar. The leaf disks are sprayed with a test solution before (preventative) or after (curative) inoculation. Compounds to be tested are prepared as DMSO solutions (max. 10 mg/ml) which are diluted to the appropriate concentration with 0.025% Tween20 just before spraying. The inoculated leaf disks or segments are incubated under defined conditions (temperature, relative humidity, light, etc.) according to the respective test system. A single evaluation of disease level is carried out 3 to 14 days after inoculation, depending on the pathosystem. Percent disease control relative to the untreated check leaf disks or segments is then calculated.
Wheat leaf segments cv. Kanzler are placed on agar in multiwell plates (24-well format). The leaf segments are then inoculated with a spore suspension of the fungus. Plates were stored in darkness at 19° C. and 75% relative humidity. The formulated test compound diluted in water was applied 1 day after inoculation. The leaf segments were incubated at 19° C. and 75% relative humidity under a light regime of 12 hours light/12 hours darkness in a climate cabinet and the activity of a compound was assessed as percent disease control compared to untreated when an appropriate level of disease damage appears in untreated check leaf segments (6 to 8 days after application).
The following compounds at 200 ppm in the applied formulation give at least 80% disease control in this test when compared to untreated control leaf disks under the same conditions, which show extensive disease development.

SMILES	melting point [°C]	inhibition at 20 ppm [1] [%]	pest or weed control at 200 ppm [2] [%]	pest or weed control at 200 ppm [3] [%]
O=C(NCCO)C(=O)c1ccc(-c2noc(C(F)(F)F)n2)cc1 [Compound 1.1, N-(2-hydroxy-ethyl)-2-oxo-2-[4-[5-(trifluoromethyl)-1,2,4-oxadiazol-3-yl]phenyl]acetamide]	147 to 148	≥ 80	≥ 80	≥ 80
O=C(NCCNC(=O)C1CC1)C(=O)c1ccc(-c2noc(C(F)(F)F)n2)cc1 [Compound 1.8, N-[2-[[2-oxo-2-[4-[5-(trifluoromethyl)-1,2,4-oxadiazol-3-yl]phenyl]acet-yl]amino]eth-yl]cyclopropane-carboxamide]	209 to 210	≥ 80	≥ 80	–
Cl.NCCNC(=O)C(=O)c1ccc(-c2noc(C(F)(F)F)n2)cc1 [Compound 1.9, 2-[[2-oxo-2-[4-[5-(trifluoromethyl)-1,2,4-oxadiazol-3-yl]phenyl]acet-yl]amino]ethyl-ammonium; chloride]	213 to 214	≥ 80	≥ 80	≥ 80
CCCCNC(=O)C(=O)c1ccc(-c2noc(C(F)(F)F)n2)cc1 [Compound 1.12, N-butyl-2-oxo-2-[4-[5-(trifluoromethyl)-1,2,4-oxadiazol-3-yl]phenyl]acetamide]	65.1 to 68.2	≥ 80	≥ 80	≥ 80
O=C(NC1CC1)C(=O)c1ccc(-c2noc(C(F)(F)F)n2)cc1 [Compound 1.16, N-cyclopropyl-2-oxo-2-[4-[5-(trifluoromethyl)-1,2,4-oxadiazol-3-yl]phenyl]acetamide]	113.1 to 116	≥ 80	≥ 80	≥ 80
O=C(C(=O)N1CCCC1)c1ccc(-c2noc(C(F)(F)F)n2)cc1 [Compound 1.20, 1-pyrrolidin-1-yl-2-[4-[5-(trifluoromethyl)-1,2,4-oxadiazol-3-yl]phenyl]ethane-1,2-dione]	104 to 110	≥ 80	≥ 80	≥ 80
O=C(NCc1ccccc1F)C(=O)c1ccc(-c2noc(C(F)(F)F)n2)cc1 [Compound 1.26, N-[(2-fluorophen-yl)methyl]-2-oxo-2-[4-[5-(trifluoromethyl)-1,2,4-oxadiazol-3-yl]phenyl]acetamide]	84 to 86	≥ 80	≥ 80	≥ 80
O=C(NC1COC1)C(=O)c1ccc(-c2noc(C(F)(F)F)n2)cc1 [Compound 1.27, N-(oxetan-3-yl)-2-oxo-2-[4-[5-(trifluoromethyl)-1,2,4-oxadiazol-3-yl]phenyl]acetamide]	131 to 136	≥ 80	≥ 80	≥ 80
CCON(C)C(=O)C(=O)c1ccc(-c2noc(C(F)(F)F)n2)cc1 [Compound 1.32, N-ethoxy-N-methyl-2-oxo-2-[4-[5-(trifluoromethyl)-1,2,4-oxadiazol-3-yl]phenyl]acetamide]	–	≥ 80	≥ 80	≥ 80
O=C(C(=O)N1CCOCC1)c1ccc(-c2noc(C(F)(F)F)n2)cc1 [Compound 1.35, 1-morpholino-2-[4-[5-(trifluoromethyl)-1,2,4-oxadiazol-3-yl]phenyl]ethane-1,2-dione]	140 to 144	≥ 80	≥ 80	≥ 80
COC(=O)CNC(=O)C(=O)c1ccc(-c2noc(C(F)(F)F)n2)cc1 [Compound 1.36, methyl 2-[[2-oxo-2-[4-[5-(trifluoromethyl)-1,2,4-oxadiazol-3-yl]phenyl]acet-yl]amino]acetate]	89 to 90	≥ 80	–	≥ 80
COCCNC(=O)C(=O)c1ccc(-c2noc(C(F)(F)F)n2)cc1 [Compound 1.40, N-(2-methoxy-ethyl)-2-oxo-2-[4-[5-(trifluoromethyl)-1,2,4-oxadiazol-3-yl]phenyl]acetamide]	–	≥ 80	≥ 80	≥ 80

Continued, in another order:

melting point [°C]	SMILES	inhibition at 20 ppm [1] [%]	pest or weed control at 200 ppm [2] [%]	pest or weed control at 200 ppm [3] [%]
167 to 168	CNC(=O)CNC(=O)C(=O)c1ccc(-c2noc(C(F)(F)F)n2)cc1 [Compound 1.7, N-[2-(methyl-amino)-2-oxo-ethyl]-2-oxo-2-[4-[5-(trifluoromethyl)-1,2,4-oxadiazol-3-yl]phenyl]acetamide]	≥ 80	≥ 80	≥ 80
96 to 97.7	CC(C)NC(=O)C(=O)c1ccc(-c2noc(C(F)(F)F)n2)cc1 [Compound 1.13, N-isopropyl-2-oxo-2-[4-[5-(trifluoromethyl)-1,2,4-oxadiazol-3-yl]phenyl]acetamide]	≥ 80	≥ 80	≥ 80
143.6 to 147.6	N#CCNC(=O)C(=O)c1ccc(-c2noc(C(F)(F)F)n2)cc1 [Compound 1.14, N-(cyanomethyl)-2-oxo-2-[4-[5-(trifluoromethyl)-1,2,4-oxadiazol-3-yl]phenyl]acetamide]	≥ 80	≥ 80	≥ 80
83 to 85.3	CC(C)CNC(=O)C(=O)c1ccc(-c2noc(C(F)(F)F)n2)cc1 [Compound 1.15, N-isobutyl-2-oxo-2-[4-[5-(trifluoromethyl)-1,2,4-oxadiazol-3-yl]phenyl]acetamide]	≥ 80	≥ 80	≥ 80
128.1 to 130.8	CNC(=O)C(=O)c1ccc(-c2noc(C(F)(F)F)n2)cc1 [Compound 1.17, N-methyl-2-oxo-2-[4-[5-(trifluoromethyl)-1,2,4-oxadiazol-3-yl]phenyl]acetamide]	≥ 80	≥ 80	≥ 80
146.7 to 149.7	NC(=O)C(=O)c1ccc(-c2noc(C(F)(F)F)n2)cc1 [Compound 1.18, 2-oxo-2-[4-[5-(trifluoromethyl)-1,2,4-oxadiazol-3-yl]phenyl]acetamide]	≥ 80	≥ 80	≥ 80
134 to 138	CN(C)NC(=O)C(=O)c1ccc(-c2noc(C(F)(F)F)n2)cc1 [Compound 1.19, N′,N′-dimethyl-2-oxo-2-[4-[5-(trifluoromethyl)-1,2,4-oxadiazol-3-yl]phenyl]aceto-hydrazide]	≥ 80	≥ 80	≥ 80
